Test results: ChEMBL document CHEMBL4190342, “Identifying novel factor XIIa inhibitors with PCA-GA-SVM developed vHTS models” (Eur J Med Chem, 2017)
pIC50: −log10 of the molar value.

Experiments:
[1] = target: T1, Coagulation factor XII (Homo sapiens, UniProt P00748); test: Inhibition of human factor 12a using Boc-Gly-Gln-Arg-AMC substrate incubated for 1 hr by fluorescence assay
T1 sequence (P00748 whole entry): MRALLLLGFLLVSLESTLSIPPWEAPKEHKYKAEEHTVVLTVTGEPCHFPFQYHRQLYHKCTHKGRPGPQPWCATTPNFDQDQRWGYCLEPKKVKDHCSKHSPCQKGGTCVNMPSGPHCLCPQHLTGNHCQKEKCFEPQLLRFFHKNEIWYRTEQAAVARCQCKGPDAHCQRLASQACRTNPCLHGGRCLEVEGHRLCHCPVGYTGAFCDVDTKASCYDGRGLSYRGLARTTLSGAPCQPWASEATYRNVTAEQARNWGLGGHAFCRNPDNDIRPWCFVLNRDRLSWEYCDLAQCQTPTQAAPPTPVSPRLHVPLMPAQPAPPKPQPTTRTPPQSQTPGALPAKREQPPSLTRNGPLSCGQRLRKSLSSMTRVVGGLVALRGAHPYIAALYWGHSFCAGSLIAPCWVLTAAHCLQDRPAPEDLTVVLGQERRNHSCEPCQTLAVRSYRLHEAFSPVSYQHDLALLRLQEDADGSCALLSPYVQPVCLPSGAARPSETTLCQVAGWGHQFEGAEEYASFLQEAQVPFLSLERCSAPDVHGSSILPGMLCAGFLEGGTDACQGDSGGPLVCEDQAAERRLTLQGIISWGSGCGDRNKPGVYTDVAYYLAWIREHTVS

[2] = target: T1, Coagulation factor XII; test: Inhibition of human factor 12a using Boc-Gly-Gln-Arg-AMC substrate incubated for 1 hr in presence of 0% Tween20 surfactant by fluorescence assay
[3] = target: T1, Coagulation factor XII; test: Inhibition of human factor 12a using Boc-Gly-Gln-Arg-AMC substrate incubated for 1 hr in presence of 0.01% Tween20 surfactant by fluorescence assay
[4] = target: T1, Coagulation factor XII; test: Inhibition of human factor 12a using Boc-Gly-Gln-Arg-AMC substrate incubated for 1 hr in presence of 0.02% Tween20 surfactant by fluorescence assay

SMILES | pIC50 [1] | also measured
COc1ccccc1C(=O)n1nc(-c2cccnc2)nc1N | 6.17 | pIC50 [2]: 5.73; pIC50 [3]: 5.58; pIC50 [4]: 5.61
COc1cccc(/C=C(\C#N)c2nc3ccccc3[nH]2)c1 | < 4.30 | –
Cc1ccc(/C=C(\C#N)c2nc3ccccc3[nH]2)cc1 | < 4.30 | –
COc1cc(OC)cc(C(=O)n2nnc3ccccc32)c1 | 4.60 | –
O=C(c1ccco1)n1nnc2ccccc21 | 4.47 | –
O=C(c1ccc(Cl)cc1)n1nnc2ccccc21 | 4.50 | –
O=C(c1ccc(Br)cc1)n1nnc2ccccc21 | 6.22 | –
COC(=O)c1ccc(/C=C(\C#N)c2nc3ccc(C)cc3[nH]2)cc1 | < 4.30 | –
N#C/C(=C\c1ccccc1)c1nc2ccccc2[nH]1 | < 4.30 | –
COc1ccc(/C=C(\C#N)c2nc3ccc(C)cc3[nH]2)cc1 | < 4.30 | –
COc1ccccc1C(=O)n1nnc2ccccc21 | 5.14 | –
COc1ccc(/C=C(\C#N)c2nc3ccccc3[nH]2)cc1OC | < 4.30 | –
Cc1ccc2nc(/C(C#N)=C/c3ccccc3)[nH]c2c1 | < 4.30 | –
